Measurements: patent publication US20210220408A1, “ARYL HYDROCARBON RECEPTOR ANTAGONISTS AND METHODS OF USE” (Magenta Therapeutics Inc., priority 2018, published 2021)

Target: T1, aryl hydrocarbon receptor (AHR) (Homo sapiens, UniProt P35869)
T1 sequence (P35869 11-848): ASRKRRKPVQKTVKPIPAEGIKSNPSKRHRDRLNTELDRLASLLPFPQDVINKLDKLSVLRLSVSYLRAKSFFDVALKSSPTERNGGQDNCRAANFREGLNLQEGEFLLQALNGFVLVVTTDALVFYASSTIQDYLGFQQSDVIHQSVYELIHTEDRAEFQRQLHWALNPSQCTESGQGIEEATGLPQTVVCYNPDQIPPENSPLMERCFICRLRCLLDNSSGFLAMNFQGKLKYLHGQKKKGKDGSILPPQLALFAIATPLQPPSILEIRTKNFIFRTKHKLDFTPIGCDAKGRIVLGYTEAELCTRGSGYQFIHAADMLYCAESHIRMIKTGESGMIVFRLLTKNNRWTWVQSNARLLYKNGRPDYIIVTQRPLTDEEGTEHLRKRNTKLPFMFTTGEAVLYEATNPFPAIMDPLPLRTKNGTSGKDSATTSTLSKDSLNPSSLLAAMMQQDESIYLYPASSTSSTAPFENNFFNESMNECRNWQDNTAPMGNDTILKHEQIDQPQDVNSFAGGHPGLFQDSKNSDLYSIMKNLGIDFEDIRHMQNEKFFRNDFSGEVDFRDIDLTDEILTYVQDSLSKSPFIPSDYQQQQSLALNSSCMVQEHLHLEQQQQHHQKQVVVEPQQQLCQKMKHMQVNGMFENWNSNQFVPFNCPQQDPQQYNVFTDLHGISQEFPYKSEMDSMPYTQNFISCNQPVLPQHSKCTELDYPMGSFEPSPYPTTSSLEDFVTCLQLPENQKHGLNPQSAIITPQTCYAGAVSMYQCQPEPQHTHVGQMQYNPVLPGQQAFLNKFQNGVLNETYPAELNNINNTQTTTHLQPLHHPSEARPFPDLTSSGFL
Assay: DRE-Luciferase reporter high-throughput screen (AHR antagonist, VAF347-activated)
Description: HepG2 hepatocellular carcinoma cells were transfected with a dioxin-response element (DRE) Firefly luciferase reporter construct. Luciferase transcription was activated with the aryl hydrocarbon receptor (AHR) agonist, VAF347. Addition of an AHR antagonist results in inhibition of the luciferase transcription and a loss of signal in the assay.
HepG2, a hepatocellular carcinoma cell line, was transfected with the dioxin-response element Firefly luciferase reporter construct using the TransIT-transfection system. Prior to transfection, HepG2 cells (Sigma) were cultured at 90% confluency in Eagle's Modified Essential Medium (Sigma)+2 mM Glutamine (Sigma), +1^% Non Essential Amino Acids (Sigma)+10% Fetal Bovine Serum (Hyclone) and harvested and counted (Biorad TC20 cell counter). OptilMEM serum-free media and TransIT (Mirus) were mixed for transfection in 150 mm dishes by adding 240 μL Transit to 3.0 mL OptiMEM, vortexing briefly to mix, and incubating at room temperature for 20 minutes. The DNA mixture was prepared by adding 80 μg plasmid (pGudLuc6.1 plasmid, Garrison et al., (1996) Fundam. Appl. Toxicol., 30, 194-203), inverting to mix, and incubating at room temperature for 30 minutes. 30×10^6 HepG2 cells were seeded in 30 mL media and 3.3 mL of the DNA, OptiMEM, and TransIT mixture was added dropwise to the plate. The plate was mixed by rocking and incubated at 37° C./5% CO2 overnight. The next day, cells were harvested by aspirating media, washing once with sterile phosphate buffered saline (PBS, Gibco), trypsinzing with 0.05% Trypsin (Corning) and harvesting cells with culture medium, and freezing with Cell Freezing Media (Gibco) at 5 50×10^6 cells/vial in 1 mL/vial.
Transiently-transfected frozen HepG2 cells with DRE-Luciferase, were thawed in a 37° C. water bath and resuspended in complete media. 4 μL cells at 15,000 cells per well was transferred into the wells of a 1536-well Alphaplate assay plate (PerkinElmer) using TEMPEST liquid dispenser. The plate was centrifuged at 1000 rpm for 1 minute. 30 nL of the controls (1 μM (S)-2-(6-((2-(1H-indol-3-yl)ethyl)amino)-2-(5-fluoropyridin-3-yl)-9H-purin-9-yl)propan-1-ol or 100% DMSO) were transferred to the assay plate using the Pin Tool on BRAVO. 1 μL of VAF347 (15 nM final concentration) in complete media was added to the wells using TEMPEST. The plate was centrifuged at 1000 rpm for 1 minute and incubated at 37° C./5% CO2 overnight. After incubation, the plate was removed from the incubator and brought to room temperature. 2 μL of room temperature Steady-Glo luciferase detection reagent (Promega) was added to the wells with TEMPEST. The plate was centrifuged at 2000 rpm for 1 minute, sealed with clear plastic seal and kept at room temperature for 15 minutes prior to measuring luminescence on ENVISION.
Approximately 166,000 compounds were screened in 132 1536-well plates in the luciferase reporter gene assay at a final concentration of 12 μM. […] Each compound was tested at 0.1 μM, 1.0 μM, and 10 μM in the DRE luciferase assay and Cell Titer Glo cytotoxicity assay (Promega). […] 512 compounds were selected for 10-point dose-response in the AHR luciferase reporter assay and the Cell Titer Glo cytotoxicity assay.

Compound	IC50
c1ccc(N2CCN(c3nc(N4CCCCC4)nc4nccnc34)CC2)cc1 [75A]	1 to 2 µM
CN(C)C(=O)Oc1ccc(-c2cn3cc(C(F)(F)F)ccc3n2)cc1 [compound 103]	0.5 to 1 µM
COc1ccc(C(=O)Nc2ccc(C)c(F)c2)cc1 [2B]	1 to 2 µM
CS(=O)(=O)N1CCc2cc(-c3csc(Cc4cn5cc(Cl)cc(Cl)c5n4)n3)ccc21 [57A]	1 to 2 µM
Cc1cc(N(C)C)nc(N2CCN(C(=O)Nc3cccc(F)c3)CC2)n1 [79A]	1 to 2 µM
FC(F)(F)c1ccc(N/N=C/c2ccc(Cl)cc2)nc1 [45B]	1 to 2 µM
Cc1nc(NC(=O)c2cc3nc(N(C)C)n(-c4ccccc4)c3s2)sc1C [49A]	1 to 2 µM
Cc1ccccc1NC(=O)c1cc(-c2cnc(-c3ccccc3)nc2)cn1C [12B]	1 to 2 µM
COc1ccc2[nH]c(C(=O)Nc3ccc(Br)c(C)n3)cc2c1 [25B]	0.2 to 0.5 µM
CCc1cccc2c(C(=O)CSc3nnnn3C)c[nH]c12 [63B]	1 to 2 µM
Clc1ccc(-c2nc3cc(Br)cnc3[nH]2)cc1 [72B]	< 0.2 µM
CCOc1ccc(C(=O)Nc2ccccc2C(N)=O)cc1 [7B]	1 to 2 µM
C#CCOc1ccc(C(=O)Nc2cccc(OC)c2)cc1 [1A]	> 2 µM
CCn1cc(C(=O)Nc2ccc(Br)cn2)cn1 [33A]	> 2 µM
CC(=O)c1cnc(N2CCN(c3cccc(Cl)c3)CC2)nc1C [69A]	1 to 2 µM
Cn1nc(N2CCN(c3ccccc3Cl)CC2)c(=O)n(C)c1=O [42B]	0.2 to 0.5 µM
FC(F)(F)c1ccc(CSc2nccc(-c3cccnc3)n2)cc1 [46B]	0.2 to 0.5 µM
O=C(Nc1ccc(OC(F)F)c(Cl)c1)c1cccc(Cl)c1 [5B]	0.5 to 1 µM
CC(=O)Nc1ccc(NC(=O)c2cccc3c2OCC3)cc1 [43A]	1 to 2 µM
Cc1cc(C)c(C#N)c(SCc2cc(-c3cccs3)on2)n1 [79B]	1 to 2 µM
Cn1nc(C(F)(F)F)c2cc(C(=O)Nc3ccc(F)cc3)sc21 [24B]	0.5 to 1 µM
CCn1cnc(-c2nc(C(=O)Nc3cccc(F)c3)c3ccccn23)c1 [48A]	> 2 µM
O=C(Nc1ccc2c(c1)ncn2-c1ccccc1)c1ccc(Cl)cc1 [39A]	1 to 2 µM

Compound	IC50
Cn1c(COc2cccc3ccccc23)nc2ccccc21 [67B]	1 to 2 µM
Cc1nn(C(=O)Nc2ccccc2)c(C)c1Oc1ccccc1 [22A]	1 to 2 µM
COc1ccc(C(=O)Nc2cccc(F)c2)cc1C [1B]	1 to 2 µM
O=C(Nc1ccc(OC(F)(F)F)cc1)c1ccc(F)cc1 [6A]	1 to 2 µM
Clc1ccc(-c2csc(-c3ccc4c(c3)CCO4)n2)s1 [38B]	0.5 to 1 µM
CCc1c(C(=O)Nc2c(C)nn(-c3ccccc3)c2C)cnn1-c1ccc([N+](=O)[O-])cc1 [30A]	1 to 2 µM
CCCn1cnc(-c2nc(C(=O)Nc3cc(C)ccc3C)c3ccccn23)c1 [46A]	1 to 2 µM
O=C(Nc1ccc(C(F)(F)F)oc1=O)c1ccc(Cl)cc1 [17B]	0.5 to 1 µM
Cc1ccc(C(=O)Nc2cc(C(C)(C)C)on2)cc1 [25A]	> 2 µM
Cn1ccc(NC(=O)c2cc(-c3cccc(Cl)c3)[nH]n2)n1 [31A]	> 2 µM
O=C(NCCc1ccccc1)c1cnc(-c2noc3ccccc23)s1 [60A]	> 2 µM
O=[N+]([O-])c1ccc(-n2cnc(-c3ccc(F)cc3)c2)nc1 [52B]	0.2 to 0.5 µM
O=C(Nc1ccc(N2CCc3sccc3C2)nc1)c1cc(Br)c[nH]1 [32A]	1 to 2 µM
CN(/N=C/c1cc(Br)cs1)c1ccc(Cl)nn1 [50B]	0.5 to 1 µM
O=C(Nc1nc(-c2ccc(F)cc2)n[nH]1)c1cc(F)cc(F)c1 [14B]	0.5 to 1 µM
CC(=O)c1csc(COc2cc(Cl)cc(Cl)c2)n1 [55A]	1 to 2 µM
Cc1ccc2[nH]c(SCc3ccccc3C)nc2c1 [64B]	0.5 to 1 µM
O=C(Nc1ccc(Cl)cc1)c1ccc(-c2ccccn2)s1 [15B]	0.5 to 1 µM
O=C(Nc1cc(=O)c2ccccc2o1)c1ccc(Cl)cc1 [45A]	> 2 µM
Ic1ccc(-c2cnc(-c3ccncc3)o2)cc1 [76B]	0.2 to 0.5 µM
Cc1ccc(NC(=O)c2cc3c(=O)[nH]c(=O)n(C)c3nc2C)cc1Cl [28B]	0.2 to 0.5 µM
O=C(Nc1ccc(-c2cnco2)cc1)c1ccc(F)cc1F [3B]	0.2 to 0.5 µM

Second part, the compound after the results:

IC50	Compound
0.5 to 1 µM	Nc1nccc(-c2cc(-c3cccc(C(F)(F)F)c3)no2)n1 [80B]
1 to 2 µM	CCOC(=O)c1ccc(Nc2nc3nonc3[nH]/c2=N\OC(C)=O)cc1 [97B]
1 to 2 µM	COC(OC)c1ccc(C#N)c(=O)n1Cc1ccc(Cl)cc1 [92B]
1 to 2 µM	CSc1nc(-c2ccccc2)nc2[nH]c(-c3ccccc3)cc(=O)c12 [166A]
> 2 µM	Cc1cc2ccccc2n2c(SCC(=O)Nc3ccccc3F)nnc12 [187A]
> 2 µM	COc1ccc2cc(C)c3nn(CCNC(=O)c4sc(C)nc4C)c(=O)n3c2c1 [191A]
0.5 to 1 µM	O=C1CC(c2ccc(Cl)cc2)CN1C(=O)Nc1ccccc1 (centres unmarked) [103B]
1 to 2 µM	COCCNc1c(C)c(C)nc2cc(-c3cc(C)oc3C)nn12 [119A]
1 to 2 µM	c1cncc(-c2nnc3sc(-c4csc5c4CCCC5)nn23)c1 [99A]
0.2 to 0.5 µM	COc1ccc(-c2cc(=O)c3cc(OC(=O)C(C)(C)C)ccc3o2)cc1 [110B]
1 to 2 µM	COc1ccc(Cl)cc1C(=O)NCc1ccc(Cl)cc1 [89B]
> 2 µM	Cc1c(C(=O)OC2CCCC2)[nH]c2c1C(=O)CCC2 [179A]
0.5 to 1 µM	C1=C(c2ccccc2)CCN(c2ccc3nnnn3n2)C1 [compound 110]
1 to 2 µM	CC(C)NC(=O)c1nc(-c2cn(-c3ccccc3)cn2)n2ccccc12 [101A]
1 to 2 µM	NC(=O)c1cc(-c2ccc(Cl)s2)nc2ccccc12 [156A]
1 to 2 µM	CNC(=O)c1ccc(CN(C)C(=O)c2ccc(-c3nnc(-c4ccccc4C)o3)cc2)cc1 [140A]
> 2 µM	Clc1ccc2nnn(OCc3cn4cc(Cl)ccc4n3)c2c1 [116A]
0.2 to 0.5 µM	CC(=O)N1CC=C(c2ccc(OCc3ccc(C#N)cc3)cc2)CC1 [compound 143]
1 to 2 µM	COC(=O)c1cc2c(ccn2-c2ccc(F)cc2)n1CCC#N [116B]
> 2 µM	Cc1c(-c2cc(NC(=O)C3CC3)[nH]n2)sc2ccc(Cl)cc12 [105A]
1 to 2 µM	CCSc1ccc(-c2ccc(-n3cccn3)cc2)nn1 [91B]
0.5 to 1 µM	COc1ccc(-c2csc(C3=C(N)N(C(C)C)CC3=O)n2)cc1 [compound 55]
0.2 to 0.5 µM	Cc1nn2c(-c3cccc(NC(=O)CN4CCCCC4)c3)nnc2c2ccccc12 [119B]
1 to 2 µM	Cc1nc2nc(SCCOc3ccc(C#N)cc3)nn2c(C)c1C [125A]
> 2 µM	COC(=O)c1ccc(NC(=O)CCn2nc(C)cc2C)s1 [108A]

IC50	Compound
1 to 2 µM	O=C(COc1ccccc1-c1nnc(-c2ccccc2)o1)NCc1ccccn1 [139A]
0.5 to 1 µM	Cn1nc(C2CC2)cc1C(=O)Nc1ccc(I)cc1 [compound 36]
> 2 µM	C#CCn1cnc2c(nnn2-c2ccc(C)c(Cl)c2)c1=O [178A]
1 to 2 µM	CN(C)c1oc(-c2ccc(COc3ccccc3)o2)nc1C#N [151A]
0.5 to 1 µM	Cc1ccc(N)cc1Nc1nccc(-c2cccnc2)n1 [compound 85]
1 to 2 µM	COc1ccccc1CNc1[nH]nc2nc(C)cc(C)c12 [123A]
0.5 to 1 µM	FCCCSc1nnc(-c2cc3cc4ccccc4nc3s2)o1 [compound 155]
1 to 2 µM	O=C(c1csc2nc(-c3ccc(F)cc3)cn12)N1C[C@@H]2CC[C@@H]1C2 [97A]
0.2 to 0.5 µM	CN1/C(=N/c2ccccc2)SCC1(O)c1ccc([N+](=O)[O-])cc1 (centres unmarked) [compound 142]
0.5 to 1 µM	O=C(Cc1cccc(F)c1)Nc1ccc(-c2nccs2)cc1 [compound 62]
> 2 µM	Cc1nc(-c2ccc(OC3=CC=C4N=NC(C(F)(F)F)N4N3)cc2)no1 (centres unmarked) [124A]
> 2 µM	O=C(NCCn1nc(-c2cccs2)ccc1=O)c1cccs1 [194A]
0.2 to 0.5 µM	COCCN1Cc2cccc(C(=O)Nc3ccc(C)c(F)c3)c2C1=O [compound 32]
1 to 2 µM	N#Cc1c(N)nc2c(oc3ccccc32)c1-c1ccccc1 [123B]
> 2 µM	CC(NC(=O)c1c(N)n(C)c2ccccc2c1=O)c1ccccc1 (centres unmarked) [165A]
1 to 2 µM	CSc1cc(CSc2ccc(Cl)cc2)nc(-c2ccccn2)n1 [85A]
1 to 2 µM	COc1ccc(-c2cc3ncc(-c4ccccc4)c(N)n3n2)cc1 [118A]
0.5 to 1 µM	CCOC(=O)c1sc(NC(=O)c2sccc2C)cc1C [compound 44]
0.5 to 1 µM	CCCOc1ccc(-c2csc(N3CCCC3=O)n2)cc1 [compound 54]
> 2 µM	CCOC(=O)c1ccc(Nc2nc(=O)c3cccnc3s2)cc1 [196A]
1 to 2 µM	COc1ccc(C(=O)Nc2nc3c(s2)CCCC3)cc1 [171A]
1 to 2 µM	Cc1ccccc1OCCNC(=O)c1cc(Cl)ccc1F [141A]
0.5 to 1 µM	COc1ccc(C2=C(C#N)c3nc4ccccc4n3C(=O)C2C#N)cc1 (centres unmarked) [121B]
0.2 to 0.5 µM	O=c1ccc2ccc(OCc3ccc(F)cc3Cl)cc2o1 [111B]
0.2 to 0.5 µM	O=S(=O)(Cc1cccc(F)c1)c1ccc2ccccc2c1 [93B]
